Assay results from PubChem BioAssay AID256 (DTP/NCI, 2004).
Where “and” joins values, the source holds several entries; their conditions need not be identical. Equal values may be shown once. Toxic doses and inconclusive results are not listed. How the source made its calls: active means survival T/C of 150% or more; inactive means T/C below 125% in these data.

Tested on: CD2F1 mice, L1210 leukemia ip, survival T/C
Assay: NCI In Vivo Anticancer Drug Screen. Data for tumor model L1210 Leukemia (intraperitoneal) in CD2F1 (CDF1) mice
Details: higher = longer survival
Method in brief: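 Each value reflects a quotient of treated over vehicle control outcomes in mice with a transplanted tumor.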

[1] = endpoint: mean survival time, dose: 50.0 mg/kg/injection, schedule: Q04DX003 (ip), vehicle: saline with Tween-80
[2] = endpoint: mean survival time, dose: 100.0 mg/kg/injection, schedule: Q04DX003 (ip), vehicle: saline with Tween-80
[3] = endpoint: mean survival time, dose: 200.0 mg/kg/injection, schedule: Q04DX003 (ip), vehicle: saline with Tween-80
[4] = endpoint: mean survival time, dose: 100.0 mg/kg/injection, schedule: Q01DX009 (ip), vehicle: saline with Tween-80
[5] = endpoint: mean survival time, dose: 200.0 mg/kg/injection, schedule: Q01DX009 (ip), vehicle: saline with Tween-80
[6] = endpoint: mean survival time, dose: 100.0 mg/kg/injection, schedule: Q04DX003 (ip), vehicle: saline
[7] = endpoint: mean survival time, dose: 400.0 mg/kg/injection, schedule: Q01DX009 (ip), vehicle: saline with Tween-80
[8] = endpoint: mean survival time, dose: 400.0 mg/kg/injection, schedule: Q04DX003 (ip), vehicle: saline with Tween-80

Measured: T/C

S=c1nn[nH]n1C1CCCCC1
inactive: endpoint: mean survival time, dose: 25.0 mg/kg/injection, schedule: Q04DX003 (ip), vehicle: saline with Tween-80 96 % of control | [1] 98 % of control | [2] 92 % of control

c1ccc2nc(C3CO3)cnc2c1 (stereo unspecified)
inactive: [1] 100 % of control | [2] 96 % of control | [3] 97 % of control

COC(=O)CC[S+](C)CCC(=O)OC
inactive: endpoint: mean survival time, dose: 7.5 mg/kg/injection, schedule: Q01DX009 (ip), vehicle: saline 94 % of control | endpoint: mean survival time, dose: 15.0 mg/kg/injection, schedule: Q01DX009 (ip), vehicle: saline 98 % of control | endpoint: mean survival time, dose: 30.0 mg/kg/injection, schedule: Q01DX009 (ip), vehicle: saline 90 % of control

Cc1ccc(C)c(NC(=O)NCc2ccccc2)c1
inactive: [4] 97 % of control | [5] 106 % of control

Cc1cn(C2CC(OP(=O)(O)OCC3OC(n4ccc(N)nc4=O)C(O)C3O)C(CO)O2)c(=O)[nH]c1=O (stereo unspecified)
inactive: endpoint: median survival time, dose: 5.0 mg/kg/injection, schedule: Q01DX005 (ip), vehicle: saline 107 % of control | endpoint: median survival time, dose: 10.0 mg/kg/injection, schedule: Q01DX005 (ip), vehicle: saline 117 % of control | endpoint: median survival time, dose: 25.0 mg/kg/injection, schedule: Q01DX005 (ip), vehicle: saline 122 % of control

Cc1cc(Oc2ccc(Cl)cc2NC(=O)Nc2ccc(Cl)c(Cl)c2)c(S(=O)(=O)O)cc1Cl
inactive: endpoint: mean survival time, dose: 100.0 mg/kg/injection, schedule: Q01DX001 (ip), vehicle: acetone 94 % of control | endpoint: mean survival time, dose: 200.0 mg/kg/injection, schedule: Q01DX001 (ip), vehicle: acetone 94 % of control | endpoint: mean survival time, dose: 400.0 mg/kg/injection, schedule: Q01DX001 (ip), vehicle: acetone 93 % of control

COC(=O)C(C)=O
inactive: [6] 97 % of control | endpoint: mean survival time, dose: 200.0 mg/kg/injection, schedule: Q04DX003 (ip), vehicle: saline 100 % of control | endpoint: mean survival time, dose: 400.0 mg/kg/injection, schedule: Q04DX003 (ip), vehicle: saline 102 % of control

O=C(OCC1OC(n2cc[n+]([O-])nc2=O)C(OC(=O)c2ccccc2)C1OC(=O)c1ccccc1)c1ccccc1 (stereo unspecified)
inactive: endpoint: mean survival time, dose: 25.0 mg/kg/injection, schedule: Q01DX005 (ip), vehicle: other 90 % of control | endpoint: mean survival time, dose: 50.0 mg/kg/injection, schedule: Q01DX005 (ip), vehicle: other 101 % of control | endpoint: mean survival time, dose: 100.0 mg/kg/injection, schedule: Q01DX005 (ip), vehicle: other 104 % of control | endpoint: mean survival time, dose: 200.0 mg/kg/injection, schedule: Q01DX005 (ip), vehicle: other 122 % of control | endpoint: mean survival time, dose: 400.0 mg/kg/injection, schedule: Q01DX005 (ip), vehicle: other 113 % of control

O=C(O)/C=C\C(=O)Nc1ccc(Cl)cc1
inactive: [4] 102 % of control | [2] 108 % of control | [5] 93 % of control | [3] 97 % of control | [7] 98 % of control | [8] 94 % of control

CCC1C(=O)OCc2c1cc1n(c2=O)Cc2cc3ccccc3nc2-1 (stereo unspecified)
inactive: endpoint: mean survival time, dose: 7.39 mg/kg/injection, schedule: Q01DX001 (ip), vehicle: saline 101 % of control | endpoint: mean survival time, dose: 11.1 mg/kg/injection, schedule: Q01DX001 (ip), vehicle: saline 101 % of control | endpoint: mean survival time, dose: 16.6 mg/kg/injection, schedule: Q01DX001 (ip), vehicle: saline 100 % of control | endpoint: mean survival time, dose: 25.0 mg/kg/injection, schedule: Q01DX001 (ip), vehicle: saline 111 % of control

Cc1ccc(N2C(=O)CC(Sc3ccccc3N)C2=O)cc1Cl (stereo unspecified)
inactive: [4] 95 % of control | [5] 103 % of control | [7] 95 % of control

Nc1c(Cl)cc(Cl)c(-c2c(Cl)cc(Cl)c(N)c2Cl)c1Cl
inactive: endpoint: mean survival time, dose: 12.5 mg/kg/injection, schedule: Q01DX009 (ip), vehicle: other 100 % of control | endpoint: mean survival time, dose: 25.0 mg/kg/injection, schedule: Q01DX009 (ip), vehicle: other 101 % of control | endpoint: mean survival time, dose: 50.0 mg/kg/injection, schedule: Q01DX009 (ip), vehicle: other 101 % of control | endpoint: mean survival time, dose: 100.0 mg/kg/injection, schedule: Q01DX009 (ip), vehicle: other 97 % of control | endpoint: mean survival time, dose: 200.0 mg/kg/injection, schedule: Q01DX009 (ip), vehicle: other 94 % of control

CCc1c(O)c2c(c(O)c1C(C)=O)C(=O)c1c(cc(O)c(C(=O)O)c1C(=O)O)C2=O
inactive: endpoint: mean survival time, dose: 50.0 mg/kg/injection, schedule: Q01DX009 (ip), vehicle: saline 108 % of control | endpoint: mean survival time, dose: 100.0 mg/kg/injection, schedule: Q01DX009 (ip), vehicle: saline 116 % of control

CC(=O)SC(c1ccccc1)(c1ccccc1)c1ccccc1
inactive: [2] 95 % of control and 103 % of control | [3] 91 % of control and 97 % of control | [8] 90 % of control and 100 % of control

O=CC(NC(=O)OCc1ccccc1)C(O)C(O)C(O)CO (stereo unspecified)
inactive: endpoint: mean survival time, dose: 25.0 mg/kg/injection, schedule: Q01DX001 (ip), vehicle: saline with Tween-80 105 % of control | endpoint: mean survival time, dose: 50.0 mg/kg/injection, schedule: Q01DX001 (ip), vehicle: saline with Tween-80 102 % of control | endpoint: mean survival time, dose: 100.0 mg/kg/injection, schedule: Q01DX001 (ip), vehicle: saline with Tween-80 102 % of control

CC(=O)/C(C)=C\c1ccccc1
inactive: [4] 96 % of control | [2] 92 % of control | [5] 94 % of control | [3] 94 % of control | [7] 98 % of control | [8] 94 % of control

Nc1nc2nc(-c3ccccc3)nc(N)c2nc1-c1ccc(N(CCO)CCO)cc1
inactive: endpoint: mean survival time, dose: 45.0 mg/kg/injection, schedule: Q01DX001 (ip), vehicle: saline 100 % of control | endpoint: mean survival time, dose: 67.0 mg/kg/injection, schedule: Q01DX001 (ip), vehicle: saline 97 % of control | endpoint: mean survival time, dose: 100.0 mg/kg/injection, schedule: Q01DX001 (ip), vehicle: saline 97 % of control | endpoint: mean survival time, dose: 150.0 mg/kg/injection, schedule: Q01DX001 (ip), vehicle: saline 96 % of control

CC1OC(c2cnn(-c3ccccc3)n2)C(O)C1O (stereo unspecified)
inactive: endpoint: median survival time, dose: 12.5 mg/kg/injection, schedule: Q01DX005 (ip), vehicle: water 103 % of control | endpoint: median survival time, dose: 25.0 mg/kg/injection, schedule: Q01DX005 (ip), vehicle: water 102 % of control | endpoint: median survival time, dose: 50.0 mg/kg/injection, schedule: Q01DX005 (ip), vehicle: water 103 % of control | endpoint: median survival time, dose: 100.0 mg/kg/injection, schedule: Q01DX005 (ip), vehicle: water 100 % of control | endpoint: median survival time, dose: 200.0 mg/kg/injection, schedule: Q01DX005 (ip), vehicle: water 103 % of control

CCCC1NNC(CCC)NN1 (stereo unspecified)
inactive: endpoint: mean survival time, dose: 75.0 mg/kg/injection, schedule: Q01DX001 (ip), vehicle: saline 102 % of control

CC(C)c1ccc(C(=O)O)cc1S(=O)(=O)Cl
inactive: endpoint: mean survival time, dose: 25.0 mg/kg/injection, schedule: Q04DX003 (ip), vehicle: saline 98 % of control | endpoint: mean survival time, dose: 50.0 mg/kg/injection, schedule: Q04DX003 (ip), vehicle: saline 109 % of control | [6] 100 % of control and 107 % of control

O=C(O)CC(CC(=O)O)C(=O)O.[NH-]C1CCCCC1[NH-].[Pt+2]
inactive: endpoint: median survival time, dose: 3.12 mg/kg/injection, schedule: Q04DX003 (ip), vehicle: Klucel (hydroxypropylcellulose) (HPC) 112 % of control | endpoint: median survival time, dose: 3.12 mg/kg/injection, schedule: Q04DX003 (ip), vehicle: saline 106 % of control | endpoint: median survival time, dose: 6.25 mg/kg/injection, schedule: Q04DX003 (ip), vehicle: Klucel (hydroxypropylcellulose) (HPC) 112 % of control | endpoint: median survival time, dose: 6.25 mg/kg/injection, schedule: Q04DX003 (ip), vehicle: saline 106 % of control | endpoint: median survival time, dose: 12.5 mg/kg/injection, schedule: Q04DX003 (ip), vehicle: Klucel (hydroxypropylcellulose) (HPC) 122 % of control | endpoint: median survival time, dose: 12.5 mg/kg/injection, schedule: Q04DX003 (ip), vehicle: saline 101 % of control and 109 % of control | endpoint: median survival time, dose: 25.0 mg/kg/injection, schedule: Q04DX003 (ip), vehicle: Klucel (hydroxypropylcellulose) (HPC) 101 % of control | endpoint: median survival time, dose: 25.0 mg/kg/injection, schedule: Q04DX003 (ip), vehicle: saline 118 % of control and 107 % of control | endpoint: median survival time, dose: 50.0 mg/kg/injection, schedule: Q04DX003 (ip), vehicle: Klucel (hydroxypropylcellulose) (HPC) 103 % of control | endpoint: median survival time, dose: 50.0 mg/kg/injection, schedule: Q04DX003 (ip), vehicle: saline 109 % of control | endpoint: median survival time, dose: 100.0 mg/kg/injection, schedule: Q04DX003 (ip), vehicle: Klucel (hydroxypropylcellulose) (HPC) 109 % of control | endpoint: median survival time, dose: 100.0 mg/kg/injection, schedule: Q04DX003 (ip), vehicle: saline 120 % of control and 110 % of control | endpoint: median survival time, dose: 200.0 mg/kg/injection, schedule: Q04DX003 (ip), vehicle: Klucel (hydroxypropylcellulose) (HPC) 116 % of control | endpoint: median survival time, dose: 200.0 mg/kg/injection, schedule: Q04DX003 (ip), vehicle: saline 113 % of control

COc1ccc(/C=C/c2ccc3ccccc3[n+]2C)c(OC)c1OC
inactive: endpoint: mean survival time, dose: 5.0 mg/kg/injection, schedule: Q01DX009 (ip), vehicle: saline 98 % of control | endpoint: mean survival time, dose: 10.0 mg/kg/injection, schedule: Q01DX009 (ip), vehicle: saline 86 % of control
